Measured values reported in the NIST ThermoML archive (doi:10.1021/je030196t).
Numbers after ± are expanded uncertainties.

Assays:
[1] = xn = mol fraction of the nth substance listed; conditions: 101.3 kPa, Liquid
[2] = refractive index (Na D-line) (dimensionless); xn = mol fraction of the nth substance listed; conditions: 303.15 K, 101.3 kPa, Liquid
[3] = 101.3 kPa, Liquid
[4] = refractive index (Na D-line) (dimensionless); conditions: 303.15 K; 101.33 kPa; Liquid

Work on `C1COCCO1` [1,4-dioxane] + O yielded a mass density ([1]; 303.15 K, x2 = 0) of 1024.63 ± 1.4 kg/m3, a mass density ([1]; 303.15 K, x2 = 0.3523) of 1029.1 ± 1.4 kg/m3 and a mass density ([1]; 303.15 K, x2 = 0.5503) of 1032.4 ± 1.4 kg/m3. For the same compound, the mass density ([1]; 303.15 K, x2 = 0.6772) was 1033.83 ± 1.4 kg/m3, the mass density ([1]; 303.15 K, x2 = 0.7654) was 1033.22 ± 1.4 kg/m3 and the mass density ([1]; 303.15 K, x2 = 0.8304) was 1030.5 ± 1.4 kg/m3. For the same compound, the mass density ([1]; 303.15 K, x2 = 0.8801) was 1025.6 ± 1.3 kg/m3, the mass density ([1]; 303.15 K, x2 = 0.9195) was 1019.51 ± 1.2 kg/m3 and the mass density ([1]; 303.15 K, x2 = 0.9514) was 1012.1 ± 1.2 kg/m3. The mass density ([1]; 303.15 K, x2 = 0.9778) was 1004.1 ± 1.1 kg/m3, the mass density ([1]; 313.15 K, x2 = 0) was 1013.3 ± 1.3 kg/m3 and the mass density ([1]; 313.15 K, x2 = 0.3523) was 1018.5 ± 1.3 kg/m3. The mass density ([1]; 313.15 K, x2 = 0.5503) was 1022.6 ± 1.3 kg/m3, the mass density ([1]; 313.15 K, x2 = 0.6772) was 1024.7 ± 1.3 kg/m3 and the mass density ([1]; 313.15 K, x2 = 0.7654) was 1024.7 ± 1.3 kg/m3. The mass density ([1]; 313.15 K, x2 = 0.8304) was 1022.7 ± 1.3 kg/m3, the mass density ([1]; 313.15 K, x2 = 0.8801) was 1018.7 ± 1.2 kg/m3 and the mass density ([1]; 313.15 K, x2 = 0.9195) was 1013.4 ± 1.2 kg/m3. For the same compound, the mass density ([1]; 313.15 K, x2 = 0.9514) was 1006.9 ± 1.1 kg/m3, the mass density ([1]; 313.15 K, x2 = 0.9778) was 999.8 ± 1 kg/m3 and the mass density ([1]; 323.15 K, x2 = 0) was 1001.9 ± 1.1 kg/m3. It also gave a mass density ([1]; 323.15 K, x2 = 0.3523) of 1007.8 ± 1.1 kg/m3, a mass density ([1]; 323.15 K, x2 = 0.5503) of 1012.5 ± 1.2 kg/m3 and a mass density ([1]; 323.15 K, x2 = 0.6772) of 1015.2 ± 1.2 kg/m3. The mass density ([1]; 323.15 K, x2 = 0.7654) was 1015.9 ± 1.2 kg/m3, the mass density ([1]; 323.15 K, x2 = 0.8304) was 1014.6 ± 1.2 kg/m3 and the mass density ([1]; 323.15 K, x2 = 0.8801) was 1011.4 ± 1.1 kg/m3. It also gave a mass density ([1]; 323.15 K, x2 = 0.9195) of 1006.9 ± 1.1 kg/m3, a mass density ([1]; 323.15 K, x2 = 0.9514) of 1001.3 ± 1 kg/m3 and a mass density ([1]; 323.15 K, x2 = 0.9778) of 994.9 ± 1.1 kg/m3. The refractive index ([2]; x2 = 0) was 1.4181 ± 0.005, the refractive index ([2]; x2 = 0.3523) was 1.4116 ± 0.005 and the refractive index ([2]; x2 = 0.5503) was 1.4046 ± 0.005. For the same compound, the refractive index ([2]; x2 = 0.6772) was 1.3972 ± 0.005, the refractive index ([2]; x2 = 0.7654) was 1.391 ± 0.005 and the refractive index ([2]; x2 = 0.8304) was 1.3865 ± 0.005. The refractive index ([2]; x2 = 0.8801) was 1.3798 ± 0.005, the refractive index ([2]; x2 = 0.9195) was 1.3698 ± 0.005 and the refractive index ([2]; x2 = 0.9514) was 1.3517 ± 0.005. For the same compound, the refractive index ([2]; x2 = 0.9778) was 1.3417 ± 0.005.

For `C1CCOC1` [tetrahydrofuran], the mass density ([3]; 303.15 K) was 876.6 ± 5.1 kg/m3, the viscosity ([3]; 303.15 K) was 0.463 ± 0.013 mPa·s and the mass density ([3]; 313.15 K) was 865.65 ± 5.3 kg/m3. The viscosity ([3]; 313.15 K) was 0.4 ± 0.012 mPa·s, the mass density ([3]; 323.15 K) was 854.3 ± 5.6 kg/m3 and the viscosity ([3]; 323.15 K) was 0.372 ± 0.011 mPa·s. For the same compound, the refractive index [4] was 1.4048 ± 0.005.

`O` [water] + C1COCCO1 showed a mass density ([1]; 313.15 K, x1 = 1) of 992.3 ± 1.1 kg/m3 and a refractive index ([2]; x1 = 1) of 1.3326 ± 0.005.

For `C1CCOC1` [tetrahydrofuran] + O, the mass density ([1]; 303.15 K, x2 = 0) was 876.6 ± 5.1 kg/m3, the viscosity ([1]; 303.15 K, x2 = 0) was 0.463 ± 0.013 mPa·s and the mass density ([1]; 303.15 K, x2 = 0.3081) was 894.98 ± 4.6 kg/m3. For the same compound, the viscosity ([1]; 303.15 K, x2 = 0.3081) was 0.574 ± 0.016 mPa·s, the mass density ([1]; 303.15 K, x2 = 0.5004) was 912.11 ± 4.2 kg/m3 and the viscosity ([1]; 303.15 K, x2 = 0.5004) was 0.793 ± 0.02 mPa·s. The mass density ([1]; 303.15 K, x2 = 0.6319) was 927.1 ± 3.8 kg/m3, the viscosity ([1]; 303.15 K, x2 = 0.6319) was 1.001 ± 0.025 mPa·s and the mass density ([1]; 303.15 K, x2 = 0.7276) was 941.82 ± 3.4 kg/m3. The viscosity ([1]; 303.15 K, x2 = 0.7276) was 1.208 ± 0.029 mPa·s, the mass density ([1]; 303.15 K, x2 = 0.8002) was 955.23 ± 3.1 kg/m3 and the viscosity ([1]; 303.15 K, x2 = 0.8002) was 1.344 ± 0.032 mPa·s. It also gave a mass density ([1]; 303.15 K, x2 = 0.8573) of 966.73 ± 2.8 kg/m3, a viscosity ([1]; 303.15 K, x2 = 0.8573) of 1.384 ± 0.033 mPa·s and a mass density ([1]; 303.15 K, x2 = 0.9034) of 977.2 ± 2.6 kg/m3. It also gave a viscosity ([1]; 303.15 K, x2 = 0.9034) of 1.341 ± 0.032 mPa·s, a mass density ([1]; 303.15 K, x2 = 0.9413) of 984.94 ± 2.4 kg/m3 and a viscosity ([1]; 303.15 K, x2 = 0.9413) of 1.226 ± 0.03 mPa·s. For the same compound, the mass density ([1]; 303.15 K, x2 = 0.973) was 990.31 ± 2.2 kg/m3, the viscosity ([1]; 303.15 K, x2 = 0.973) was 1.003 ± 0.025 mPa·s and the mass density ([1]; 313.15 K, x2 = 0) was 865.65 ± 5.3 kg/m3. The viscosity ([1]; 313.15 K, x2 = 0) was 0.4 ± 0.012 mPa·s, the mass density ([1]; 313.15 K, x2 = 0.3081) was 884.04 ± 4.9 kg/m3 and the viscosity ([1]; 313.15 K, x2 = 0.3081) was 0.519 ± 0.014 mPa·s. For the same compound, the mass density ([1]; 313.15 K, x2 = 0.5004) was 901.53 ± 4.5 kg/m3, the viscosity ([1]; 313.15 K, x2 = 0.5004) was 0.668 ± 0.018 mPa·s and the mass density ([1]; 313.15 K, x2 = 0.6319) was 916.82 ± 4.1 kg/m3. The viscosity ([1]; 313.15 K, x2 = 0.6319) was 0.833 ± 0.021 mPa·s, the mass density ([1]; 313.15 K, x2 = 0.7276) was 931.96 ± 3.7 kg/m3 and the viscosity ([1]; 313.15 K, x2 = 0.7276) was 0.98 ± 0.024 mPa·s. The mass density ([1]; 313.15 K, x2 = 0.8002) was 945.99 ± 3.3 kg/m3, the viscosity ([1]; 313.15 K, x2 = 0.8002) was 1.061 ± 0.026 mPa·s and the mass density ([1]; 313.15 K, x2 = 0.8573) was 958.34 ± 3 kg/m3. For the same compound, the viscosity ([1]; 313.15 K, x2 = 0.8573) was 1.084 ± 0.027 mPa·s, the mass density ([1]; 313.15 K, x2 = 0.9034) was 969.74 ± 2.7 kg/m3 and the viscosity ([1]; 313.15 K, x2 = 0.9034) was 1.021 ± 0.025 mPa·s. It also gave a viscosity ([1]; 313.15 K, x2 = 0.9413) of 0.92 ± 0.023 mPa·s, a mass density ([1]; 313.15 K, x2 = 0.973) of 990.31 ± 15 kg/m3 and a viscosity ([1]; 313.15 K, x2 = 0.973) of 0.803 ± 0.02 mPa·s. The mass density ([1]; 323.15 K, x2 = 0) was 854.3 ± 5.6 kg/m3, the viscosity ([1]; 323.15 K, x2 = 0) was 0.372 ± 0.011 mPa·s and the mass density ([1]; 323.15 K, x2 = 0.3081) was 872.9 ± 5.2 kg/m3. It also gave a viscosity ([1]; 323.15 K, x2 = 0.3081) of 0.34 mPa·s, a mass density ([1]; 323.15 K, x2 = 0.5004) of 890.7 ± 4.7 kg/m3 and a viscosity ([1]; 323.15 K, x2 = 0.5004) of 0.578 ± 0.016 mPa·s. The mass density ([1]; 323.15 K, x2 = 0.6319) was 901.63 ± 4.5 kg/m3, the viscosity ([1]; 323.15 K, x2 = 0.6319) was 0.698 ± 0.018 mPa·s and the mass density ([1]; 323.15 K, x2 = 0.7276) was 921.9 ± 3.9 kg/m3. It also gave a viscosity ([1]; 323.15 K, x2 = 0.7276) of 0.807 ± 0.021 mPa·s, a mass density ([1]; 323.15 K, x2 = 0.8002) of 936.5 ± 3.6 kg/m3 and a viscosity ([1]; 323.15 K, x2 = 0.8002) of 0.868 ± 0.022 mPa·s. For the same compound, the mass density ([1]; 323.15 K, x2 = 0.8573) was 949.3 ± 3.3 kg/m3, the viscosity ([1]; 323.15 K, x2 = 0.8573) was 0.871 ± 0.022 mPa·s and the mass density ([1]; 323.15 K, x2 = 0.9034) was 962.2 ± 2.9 kg/m3. The viscosity ([1]; 323.15 K, x2 = 0.9034) was 0.829 ± 0.021 mPa·s, the mass density ([1]; 323.15 K, x2 = 0.9413) was 972.7 ± 2.7 kg/m3 and the viscosity ([1]; 323.15 K, x2 = 0.9413) was 0.74 ± 0.019 mPa·s. For the same compound, the mass density ([1]; 323.15 K, x2 = 0.973) was 980.8 ± 2.5 kg/m3, the viscosity ([1]; 323.15 K, x2 = 0.973) was 0.641 ± 0.017 mPa·s and the refractive index ([2]; x2 = 0) was 1.4048 ± 0.005. The refractive index ([2]; x2 = 0.3523) was 1.3994 ± 0.005, the refractive index ([2]; x2 = 0.5503) was 1.3946 ± 0.005 and the refractive index ([2]; x2 = 0.6772) was 1.387 ± 0.005. It also gave a refractive index ([2]; x2 = 0.7654) of 1.3786 ± 0.005, a refractive index ([2]; x2 = 0.8304) of 1.3684 ± 0.005 and a refractive index ([2]; x2 = 0.8801) of 1.3613 ± 0.005. It also gave a refractive index ([2]; x2 = 0.9195) of 1.3546 ± 0.005, a refractive index ([2]; x2 = 0.9514) of 1.3405 ± 0.005 and a refractive index ([2]; x2 = 0.9778) of 1.3386 ± 0.005.

Compound `C1COCCO1` [1,4-dioxane] has a mass density ([3]; 303.15 K) of 1024.63 ± 1.4 kg/m3, a viscosity ([3]; 303.15 K) of 1.022 ± 0.026 mPa·s and a mass density ([3]; 313.15 K) of 1013.3 ± 1.3 kg/m3. For the same compound, the viscosity ([3]; 313.15 K) was 0.871 ± 0.022 mPa·s, the mass density ([3]; 323.15 K) was 1001.9 ± 1.1 kg/m3 and the viscosity ([3]; 323.15 K) was 0.807 ± 0.1 mPa·s. It also gave a refractive index [4] of 1.4181 ± 0.005.

With `O` [water] + C1CCOC1 the viscosity ([1]; 303.15 K, x1 = 1) was 0.754 ± 0.019 mPa·s, the mass density ([1]; 313.15 K, x1 = 1) was 991.91 ± 2.2 kg/m3 and the viscosity ([1]; 313.15 K, x1 = 1) was 0.624 ± 0.017 mPa·s. The mass density ([1]; 323.15 K, x1 = 1) was 985.7 ± 2.4 kg/m3, the viscosity ([1]; 323.15 K, x1 = 1) was 0.544 ± 0.015 mPa·s and the refractive index ([2]; x1 = 1) was 1.3326 ± 0.005.
